We go through 19 compounds from patent US5134151A, “2-picolylamine derivatives” (J. Uriach & Cia, priority 1989, dated 1992).

The subject of assay [1] is platelet aggregation induced by PAF. Briefly: Inhibition of Platelet Aggregation Induced by PAF (Born nephelometric technique, rabbit platelet rich plasma). The format is cell-based, male New Zealand albino rabbits. The conditions noted are these: PAF (C18) 16 nM final. On the procedure:
The blood is obtained by cardiac puncture of male New Zealand albino rabbits (between 2 and 2.5 Kg of weight) and coagulation is prevented by adding 1 part of 3.16% sodium citrate dihydrate in 9 parts of blood. The platelet rich plasma (PRP) is prepared by blood centrifugation at 250×g for 10 min. at 4° C. and it is diluted with platelet poor plasma (PPP) by additional centrifugation at 3000×g for 10 min. The amount of platelets is adjusted to 3×10^-5 /mm^3. the platelet aggregation induced by PAF (C18; prepared in our laboratory) (16 nM, final) is determined by the Born nephelometric technique (J. Physiol., 1962, 162, 67) using a aggregometer Chrono-log 500. The activities of the inhibitors are expressed as IC50, that is to say the concentration of the drug needed to inhibit the platelet aggregation by 50%.

Assay [2] concerns hypotension induced by PAF. Briefly: Inhibition of the Hypotensive Effect Induced by PAF in Normotense Rats. The format is in vivo, Male Sprage Dawley rats. The conditions noted are these: Rattus norvegicus, iv, anesthetized, compound i.v. 3 min before PAF 0.5 mcg/Kg i.v., average arterial pressure, read-out: CI50 (inhibition of PAF-induced hypotension). The protocol: Male Sprage Dawley rats, of 180-220 g of weight, anesthetized with sodium pentobarbital (50 mg/Kg, i.p. 1 mL/100 g) have been used. In order to measure the average arterial pressure, a polyethylene catheter is introduced into the carotid artery. The arterial pressure is recorded with the help of a transducer connected with a R611 Beckman polygraph. The tested compounds are administered through the femoral vein 3 min before the injection of PAF (0.5 mcg/Kg, i.v.).

Where [3] appears, read: Oryctolagus cuniculus, Platelet.

The compound `CCCCCCCCCCCCCCCCCCOCCOCCOC(=O)N(Cc1cccc[n+]1CC)C(C)=O.[I-]` [Compound 3, 2-(N-Acetyl-N-((2-(2-octadecyloxyethoxy)ethoxy)carbonyl)aminomethyl)-1-ethylpyridinium iodide] had an IC50 in assay [1] (setting [3]) of 19 nM. Moreover, in assay [2], the ED50 worked out at 0.022 mg/kg.

Take `CC[n+]1ccccc1CN(C(C)=O)C(=O)OCCOCCOC(=O)C(C)(C)C.[I-]` [Compound 9, 2-(N-Acetyl-N-((2-(2-pivaloyloxyethoxy)ethoxy)carbonyl)aminomethyl)-1-ethylpyridinium iodide]: half-maximal inhibition in assay [1] (setting [3]) (IC50) was put at 1500 nM. In addition, the ED50 in assay [2] turned out to be 5 mg/kg.

Consider `CCCCCCCCCCCCCCCCCNC(=O)OCCOCCOC(=O)N(Cc1cccc[n+]1CC)C(C)=O` [Compound 12, 2-(N-Acetyl-N-((2-(2-heptadecylcarbamoyloxy)ethoxy)ethoxy)carbonyl)aminomethyl)-1-ethylpyridium chloride], for which the IC50 in assay [1] (setting [3]) came to 27 nM. In assay [2], the ED50 amounted to 0.067 mg/kg.

In the case of `CCCCCCCCCCCCCCCCCNC(=O)OCCOCCOC(=O)NCc1cccc[n+]1CC.[I-]` [Compound 13, 2-(N-((2-(2-(Heptadecylcarbamoyloxy)ethoxy)ethoxy)carbonyl)aminomethyl)-1-ethylpyridinium iodide], in assay [1] (setting [3]), the IC50 stood at 1600 nM. Moreover, the ED50 in assay [2] is 0.5 mg/kg.

Regarding `CCCCCCCCCCCCCCCCCNC(=O)OCCOCCOC(=O)N(Cc1cccc[n+]1C)C(C)=O.[I-]` [Compound 14, 2-(N-Acetyl-N-((2-(2-(heptadecylcarbamoyloxy)ethoxy)ethoxy)carbonyl)aminomethyl)-1-methylpyridinium iodide], 54 nM corresponded to half-maximal inhibition in assay [1] (setting [3]) (IC50). Also, the ED50 in assay [2] is 0.13 mg/kg.

`CCCCCCCCCCCCCCCCCNC(=O)OCCOCCOC(=O)N(Cc1cccc[n+]1CC)C(=O)OCC.[I-]` [Compound 16, 2-(N-Ethoxycarbonyl-N-((2-(2-(heptadecylcarbamoyloxy)ethoxy)ethoxy)carbonyl)aminomethyl)-1-ethylpyridinium iodide] had an IC50 in assay [1] (setting [3]) of 12 nM. Besides, the ED50 in assay [2] was found to be 0.021 mg/kg.

In assay [1] (setting [3]), `CCCCCCCCCCCCCCCNC(=O)OCCOCCOC(=O)N(Cc1cccc[n+]1CC)C(C)=O.[I-]` [Compound 19, 2-(N-Acetyl-N-((2-(2-(pentadecylcarbamoyloxy)ethoxy)ethoxy)carbonyl)aminomethyl)-1-ethylpyridinium iodide] gave an IC50 of 19 nM. The ED50 in assay [2] amounted to 0.041 mg/kg.

For the compound `CCCCCCCCCCCCCCCNC(=O)OCCOCCOC(=O)N(Cc1cccc[n+]1CCC)C(C)=O.[I-]` [Compound 20, 2-(N-Acetyl-N-((2-(2-(pentadecylcarbamoyloxy)ethoxy)ethoxy)carbonyl)aminomethyl)-1-propylpyridinium iodide], half-maximal inhibition in assay [1] (setting [3]) (IC50) required 220 nM. In addition, the ED50 in assay [2] was determined as 0.68 mg/kg.

For the compound `CCCCCCCCCCCCCCCNC(=O)OCCOCCOC(=O)N(Cc1cccc[n+]1CC)C(=O)OCC.[I-]` [Compound 22, 2-(N-Ethoxycarbonyl-N-((2-(2-(pentadecylcarbamoyloxy)ethoxy)ethoxy)carbonyl)aminomethyl)-1-ethylpyridinium iodide], in assay [1] (setting [3]), inhibition was half-maximal at 27 nM (IC50). Also, in assay [2], the ED50 was 0.032 mg/kg.

Compound `CCCCCCCCCCCCCCCNC(=O)OCCOCCOC(=O)N(Cc1cccc[n+]1CC)C(=O)OCC(C)C.[Cl-]` [Compound 25, 2-(N-Isobutyloxycarbonyl-N-((2-(2-(pentadecylcarbamoyloxy)ethoxy)ethoxy)carbonyl)aminomethyl)-1-ethylpyridinium chloride] came in with an IC50 in assay [1] (setting [3]) of 51 nM. In addition, the ED50 in assay [2] stood at 0.064 mg/kg.

Turning to `CCCCCCCCCCCCCCCNC(=O)OCCCCCOC(=O)N(Cc1cccc[n+]1CC)C(C)=O.[I-]` [Compound 31, 2-(N-Acetyl-N-((5-(pentadecylcarbamoyloxy)pentoxy)carbonyl)aminomethyl)-1-ethylpyridinium iodide], in assay [1] (setting [3]), the IC50 was 32 nM. The ED50 in assay [2] was 0.057 mg/kg.

In the case of `CCCCCCCCCCCCCCCNC(=O)OCCSCCOC(=O)N(Cc1cccc[n+]1CC)C(C)=O.[I-]` [Compound 37, 2-(N-Acetyl-N-((2-(2-(pentadecylcarbamoyloxy)ethylthio)ethoxy)carbonyl)aminomethyl)-1-ethylpyridinium iodide], half-maximal inhibition in assay [1] (setting [3]) (IC50) required 6.8 nM. Also, the ED50 in assay [2] was 0.044 mg/kg.

`CC[n+]1ccccc1CN(C(C)=O)C(=O)OCCOCCOC(=O)NCCCc1ccccc1.[I-]` [Compound 40, 2-(N-Acetyl-N-((2-(2-(3-phenylpropylcarbamoyloxy)ethoxy)ethoxy)carbonyl)aminomethyl)-1-ethylpyridinium iodide] registered an IC50 in assay [1] (setting [3]) of 1200 nM. The ED50 in assay [2] is 0.88 mg/kg.

In turn, `CC[n+]1ccccc1CN(C(C)=O)C(=O)OCCOCCOC(=O)NCC1CCCCC1.[I-]` [Compound 43, 2-(N-Acetyl-N-((2-(2-(cyclohexylmethylcarbamoyloxy)ethoxy)ethoxy)carbonyl)aminomethyl)-1-ethylpyridinium iodide] showed an IC50 in assay [1] (setting [3]) of 2000 nM. In assay [2], the ED50 was 0.5 mg/kg.

In turn, `CCCCCCCCCCCCCCCNC(=O)OCCOCCOCCOC(=O)N(Cc1cccc[n+]1CC)C(C)=O.[I-]` [Compound 46, 2-(N-Acetyl-N-((2-(2-(2-(pentadecylcarbamoyloxy)ethoxy)ethoxy)ethoxy)carbonyl)aminomethyl)-1-ethylpyridinium iodide] came in with an IC50 in assay [1] (setting [3]) of 12 nM. Also, in assay [2], the ED50 stood at 0.028 mg/kg.

As to `CCCCCCCCCCCCCCCCCNC(=O)OCCSCCOC(=O)N(Cc1cccc[n+]1CC)C(C)=O.[I-]` [Compound 62, 2-(N-Acetyl-N-((2-(2-(heptadecylcarbamoyloxy)ethylthio)ethoxy)carbonyl)aminomethyl)-1-ethylpyridinium iodide], it took 4.4 nM to reach half-maximal inhibition in assay [1] (IC50). Also, the ED50 in assay [2] turned out to be 0.013 mg/kg.

The compound `CCCCCCCCCCCCCCCCCNC(=O)OCCSCCOC(=O)N(Cc1cccc[n+]1CC)C(C)=O.[Cl-]` [Compound 63, 2-(N-Acetyl-N-((2-(2-(heptadecylcarbamoyloxy)ethylthio)ethoxy)carbonyl)aminomethyl)-1-ethylpyridinium chloride] showed an IC50 in assay [1] of 12 nM. In addition, the ED50 in assay [2] amounted to 0.018 mg/kg.

`CCCCCCCCCCCCCCCCOCCSCCOC(=O)N(Cc1cccc[n+]1CC)C(C)=O.[I-]` [Compound 66, 2-(N-Acetyl-N-((2-(2-hexadecyloxyethylthio)ethoxy)carbonyl)aminomethyl)-1-ethylpyridinium iodide] gave an IC50 in assay [1] (setting [3]) of 4.4 nM. Also, the ED50 in assay [2] came out at 0.014 mg/kg.

`CCCCCCCCCCCCCCCCCCOCCSCCOC(=O)N(Cc1cccc[n+]1CC)C(C)=O` [Compound 69, 2-(N-Acetyl-N-((2-(2-octadecyloxyethylthio)ethoxy)carbonyl)aminomethyl)-1-ethylpyridinium idodide] displayed an IC50 in assay [1] (setting [3]) of 15 nM. Further, the ED50 in assay [2] was 0.016 mg/kg.

One may read the IC50 as the midpoint of a concentration-inhibition curve. Read a low IC50 as greater potency in that assay.
